# Laboratory results from US7417156B2, “Orally active, antimalarial, anticancer, artemisinin-derived trioxane dimers” (Johns Hopkins University, priority 2002, dated 2008).
# Columns and labels:
# [1] = tested on: U251; assay: NCI 60 cell line panel screen (SRB); format: cell-based, human
# [2] = tested on: HCT-116; assay: NCI 60 cell line panel screen (SRB); format: cell-based, human
# [3] = tested on: NCI-H23; assay: NCI 60 cell line panel screen (SRB); format: cell-based, human
# [4] = tested on: OVCAR-8; assay: NCI 60 cell line panel screen (SRB); format: cell-based, human
# [5] = tested on: MALME-3M; assay: NCI 60 cell line panel screen (SRB); format: cell-based, human; conditions: MALME-3M (Melanoma)
# [6] = tested on: M14; assay: NCI 60 cell line panel screen (SRB); format: cell-based, human
# [7] = tested on: BT-549; assay: NCI 60 cell line panel screen (SRB); format: cell-based, human
# [8] = tested on: T-47D; assay: NCI 60 cell line panel screen (SRB); format: cell-based, human; conditions: T-47D (Breast Cancer)
# [9] = tested on: SK-MEL-28; assay: NCI 60 cell line panel screen (SRB); format: cell-based, human
# [10] = tested on: IGROVI; assay: NCI 60 cell line panel screen (SRB); format: cell-based, human
# [11] = tested on: PC-3; assay: NCI 60 cell line panel screen (SRB); format: cell-based, human
# [12] = tested on: K-562; assay: NCI 60 cell line panel screen (SRB); format: cell-based, human
# [13] = tested on: HT29; assay: NCI 60 cell line panel screen (SRB); format: cell-based, human
# [14] = tested on: HOP-92; assay: NCI 60 cell line panel screen (SRB); format: cell-based, human
# [15] = tested on: TK-10; assay: NCI 60 cell line panel screen (SRB); format: cell-based, human
# [16] = tested on: RPMI-8226; assay: NCI 60 cell line panel screen (SRB); format: cell-based, human
# [17] = tested on: 60 cell line panel; format: cell-based
# [18] = tested on: SNB-75; assay: NCI 60 cell line panel screen (SRB); format: cell-based, human
# [19] = tested on: MDA-MB231/ATCC; assay: NCI 60 cell line panel screen (SRB); format: cell-based, human
# [20] = tested on: HOP-62; assay: NCI 60 cell line panel screen (SRB); format: cell-based, human
# [21] = tested on: A549/ATCC; assay: NCI 60 cell line panel screen (SRB); format: cell-based, human
structure (smiles),measurement,setting,value
C[C@@H]1CC[C@H]2[C@@H](C)C(=O)O[C@@H]3O[C@]4(C)CC[C@@H]1[C@]32OO4 [Artemisinin],Log10GI50,"[1]; CNS Cancer, U251",>−4.00
same,Log10LC50,"[1]; U251 (CNS Cancer), LC50: PG=−50",>−4.00 log10M
same,Log10TGI50,"[1]; U251 (CNS Cancer), TGI: PG=0",>−4.00 log10M
same,Log10GI50,"[2]; Colon Cancer, HCT-116",−4.18
same,Log10LC50,"[2]; HCT-116 (Colon Cancer), LC50: PG=−50",>−4.00 log10M
same,Log10TGI50,"[2]; HCT-116 (Colon Cancer), TGI: PG=0",>−4.00 log10M
same,Log10LC50,"[3]; NCI-H23 (Non-Small Cell Lung Cancer), LC50: PG=−50",>−4.00 log10M
same,Log10TGI50,"[3]; NCI-H23 (Non-Small Cell Lung Cancer), TGI: PG=0",>−4.00 log10M
same,Log10GI50,"[3]; Non-Small Cell Lung Cancer, NCI-H23",>−4.00
same,Log10LC50,"[4]; OVCAR-8 (Ovarian Cancer), LC50: PG=−50",>−4.00 log10M
same,Log10TGI50,"[4]; OVCAR-8 (Ovarian Cancer), TGI: PG=0",>−4.00 log10M
same,Log10GI50,"[4]; Ovarian Cancer, OVCAR-8",>−4.00
same,Log10LC50,[5]; LC50: PG=−50,>−4.00 log10M
same,Log10TGI50,[5]; TGI: PG=0,−4.06 log10M
same,Log10LC50,"[6]; M14 (Melanoma), LC50: PG=−50",>−4.00 log10M
same,Log10TGI50,"[6]; M-14 (Melanoma), TGI: PG=0",>−4.00 log10M
same,Log10LC50,"[7]; BT-549 (Breast Cancer), LC50: PG=−50",>−4.00 log10M
same,Log10TGI50,"[7]; BT-549 (Breast Cancer), TGI: PG=0",>−4.00 log10M
same,Log10GI50,"[7]; Breast Cancer, BT-549",−4.06
same,Log10LC50,[8]; LC50: PG=−50,>−4.00 log10M
same,Log10TGI50,[8]; TGI: PG=0,>−4.00 log10M
same,Log10GI50,"[9]; Melanoma, SK-MEL-28",>−4.00
same,Log10LC50,"[9]; SK-MEL-28 (Melanoma), LC50: PG=−50",>−4.00 log10M
same,Log10TGI50,"[9]; SK-MEL-28 (Melanoma), TGI: PG=0",>−4.00 log10M
same,Log10LC50,"[10]; IGROVI (Ovarian Cancer), LC50: PG=−50",>−4.00 log10M
same,Log10TGI50,"[10]; IGROVI (Ovarian Cancer), TGI: PG=0",>−4.00 log10M
same,Log10GI50,"[10]; Ovarian Cancer, IGROVI",−4.31
same,Log10LC50,"[11]; PC-3 (Prostate Cancer), LC50: PG=−50",>−4.00 log10M
same,Log10TGI50,"[11]; PC-3 (Prostate Cancer), TGI: PG=0",−4.00 log10M
same,Log10GI50,"[11]; Prostate Cancer, PC-3",−4.17
same,Log10LC50,"[12]; K-562 (Leukemia), LC50: PG=−50",>−4.00 log10M
same,Log10TGI50,"[12]; K-562 (Leukemia), TGI: PG=0",>−4.00 log10M
same,Log10GI50,"[12]; Leukemia, K-562",−4.33
same,Log10GI50,"[13]; Colon Cancer, HT29",>−4.00
same,Log10LC50,"[13]; HT29 (Colon Cancer), LC50: PG=−50",>−4.00 log10M
same,Log10TGI50,"[13]; HT29 (Colon Cancer), TGI: PG=0",>−4.00 log10M
same,Log10LC50,"[14]; HOP-92 (Non-Small Cell Lung Cancer), LC50: PG=−50",>−4.00 log10M
same,Log10TGI50,"[14]; HOP-92 (Non-Small Cell Lung Cancer), TGI: PG=0",>−4.00 log10M
same,Log10GI50,"[14]; Non-Small Cell Lung Cancer, HOP-92",>−4.00
same,Log10GI50,"[15]; Renal Cancer, TK-10",>−4.00
same,Log10LC50,"[15]; TK-10 (Renal Cancer), LC50: PG=−50",>−4.00 log10M
same,Log10TGI50,"[15]; TK-10 (Renal Cancer), TGI: PG=0",>−4.00 log10M
same,Log10GI50,"[16]; Leukemia, RPMI-8226",>−4.00
same,Log10LC50,"[16]; RPMI-8226 (Leukemia), LC50: PG=−50",>−4.00 log10M
same,Log10TGI50,"[16]; RPMI-8226 (Leukemia), TGI: PG=0",>−4.00 log10M
same,Log10GI50 Delta,[17],−4.07
same,Log10GI50 Range,[17],0.73
same,Log10LC50 Delta,[17]; 60 cell line panel,−4.00
same,Log10LC50 Range,[17]; 60 cell line panel,0.00
same,Log10TGI50 Delta,[17]; 60 cell line panel,−4.00
same,Log10TGI50 Range,[17]; 60 cell line panel,0.06
same,Log10GI50,"[18]; CNS Cancer, SNB-75",>−4.00
same,Log10LC50,"[18]; SNB-75 (CNS Cancer), LC50: PG=−50",>−4.00 log10M
same,Log10TGI50,"[18]; SNB-75 (CNS Cancer), TGI: PG=0",>−4.00 log10M
same,Log10GI50,"[19]; Breast Cancer, MDA-MB231/ATCC",−4.20
same,Log10LC50,"[19]; MDA-MB231/ATCC (Breast Cancer), LC50: PG=−50",>−4.00 log10M
same,Log10TGI50,"[19]; MDA-MB231/ATCC (Breast Cancer), TGI: PG=0",>−4.00 log10M
same,Log10LC50,"[20]; HOP-62 (Non-Small Cell Lung Cancer), LC50: PG=−50",>−4.00 log10M
same,Log10TGI50,"[20]; HOP-62 (Non-Small Cell Lung Cancer), TGI: PG=0",>−4.00 log10M
same,Log10GI50,"[20]; Non-Small Cell Lung Cancer, HOP-62",>−4.00
same,Log10LC50,"[21]; A549/ATCC (Non-Small Cell Lung Cancer), LC50: PG=−50",>−4.00 log10M
same,Log10TGI50,"[21]; A549/ATCC (Non-Small Cell Lung Cancer), TGI: PG=0",>−4.00 log10M
same,Log10GI50,"[21]; Non-Small Cell Lung Cancer, A549/ATCC",−4.17
